{"source": "paper PMC10145360", "about": "“Antiplatelet Aggregation Properties of Cirsilineol: A Novel Inhibitor of Blood Coagulation Factor Xa” (Pharmaceuticals, 2023)", "key": {"[1]": {"test_system": "FX activation by FVIIa on HUVECs", "test": "Production of FXa on the surface of TNF-α-stimulated HUVECs", "format": "cell-based, human", "details": "pre-incubation 10 min", "protocol": "Figure 5 Effects of CSL on the catalytic activity and production of FXa. […] Plots show the average values of five independent measurements. (B) HUVECs pre-incubated with the indicated concentrations of CSL for 10 min were stimulated with TNF-α (10 ng/mL) for 6 h and incubated with FX (175 nM) and FVIIa (10 nM) with/without anti-tissue factor antibody (25 µg/mL). The production of FXa was characterized as described in the Methods section. (C) PRP was preincubated for 5 min with different concentrations of CSL, Riva, or the vehicle. Platelet aggregation was initiated with FXa (52 µg/mL), and the platelet aggregation was recorded using an aggregometer. Data are shown as mean values ± SD of five independent experiments. * p < 0.05 vs. TNF-α alone (B) or FXa (C). D = 0.2% DMSO, used as the vehicle control.\nConfluent HUVEC monolayers developed on 96-well culture plates that were stimulated with TNF-α (10 ng/mL) for 6 h after exposure to the relevant CSL concentration for 10 min. […] The reaction was stopped by adding buffer A supplemented with 10 mM EDTA, and the amount of FXa produced was determined by adding S-2765. Spectrophotometric monitoring of the absorbance over a 2 min period was performed at 405 nm. […]"}, "[2]": {"test_system": "platelet-poor plasma (PPP)", "test": "Prothrombin time (PT) after administration to mice", "format": "in vivo, mouse", "details": "administered to mice; data not shown", "protocol": "First, the potential cytotoxicity of […] on HUVECs was assessed using the 3-(4,5-dimethylthiazol-2-yl)-2,5-diphenyltetrazolium bromide (MTT) assay. […] The activated partial thromboplastin time (aPTT) and prothrombin time (PT), two coagulation parameters altered by CSL in vitro, were assessed first. We used the direct FXa inhibitor rivaroxaban as a positive control for our experiments. […] In the aPTT experiments, rivaroxaban at 8.38 μM and CSL at 7.23 μM, respectively, doubled the clotting time. Each mouse group (n = 5) received intravenous injections of CSL for 4 consecutive days to validate the in vitro results in an ex vivo experiment. […] In the ex vivo aPTT assays, treatment with CSL at 0.25 mg/kg and rivaroxaban at 0.29 mg/kg, respectively, doubled the clotting time. The average blood volume was determined to be 2 mL based on an estimated circulating blood volume for mice of 72 mL/kg and an average weight of 27 g for each animal used in this investigation. As a result, the estimated concentration of CSL in the peripheral blood after each injection ([…]) was 2.5, 5, 10, or 20 μM, respectively.\nPlasma was taken by centrifuging blood (2000× g for 10 min) at room temperature following dimethyl sulfoxide (DMSO) or CSL administration for 1 h to assess PT and aPTT using a thrombotimer (Behnk Elektronik, Norderstedt, Germany). […] Next, the clotting time was measured."}, "[3]": {"test_system": "platelet-poor plasma (PPP)", "test": "In vitro aPTT clotting time in platelet-poor plasma", "parameters": "species or system human", "protocol": "Figure 2 Effects of CSL on clotting time. (A) Platelet-poor plasma (PPP) was incubated with the indicated concentrations of CSL or rivaroxaban (Riva) for 15 min. (B) One hour after administering DMSO, CSL, or Riva, blood was collected from the mice, and PPP was obtained. Then, in vitro aPTT (A) or ex vivo aPTT was measured, as described in the Methods sections. Data are shown as mean values ± SD of five independent experiments. * p < 0.05 vs. D. D = 0.2% DMSO, used as the vehicle control.\nTen fasting healthy volunteers (aged 24–28; six women and four men) who were free of allergies, cardiovascular problems, carbohydrate, or lipid metabolic abnormalities and had not taken any morning medication had their blood samples taken. None of our subjects used addictive drugs or antioxidant food supplements, and their diets were well balanced. The plasma from the blood samples was immediately spun down (1300× g for 15 min) to separate it from sodium citrate (10.9 mM) and pooled for the following investigations. Next, human blood samples were spun down at room temperature to rapidly separate the PRP. The PRP concentration was adjusted to 1 × 10^9 platelets/mL using a hemocytometer. After being rinsed once in HEPES buffer containing 1 mM CaCl2, the PRP pellet was maintained at room temperature for an additional 30 min. Then, 10 mL of the platelet samples were utilized to measure each clotting time point. The IRB of Kyungpook National University Hospital (Daegu, Republic of Korea) approved this study protocol (KNUH 2012-01-010).\nPlasma was taken by centrifuging blood (2000× g for 10 min) at room temperature following dimethyl sulfoxide (DMSO) or CSL administration for 1 h to assess PT and aPTT using a thrombotimer (Behnk Elektronik, Norderstedt, Germany). Micronized silica was utilized as an activator for the aPTT test. Briefly, 100 μL of platelet-poor plasma (PPP) and 100 μL of aPTT assay reagent were combined for 1 min at 37 °C, 100 µL of CaCl2 (20 mM) was added, and the clotting times were noted. […] Next, the clotting time was measured."}}, "data": [{"smiles": "COc1cc(-c2cc(=O)c3c(O)c(OC)c(OC)cc3o2)ccc1O", "note": "[CSL, 4,5-dihydroxy-3,6,7-trimethoxyflavone]", "values": [{"measurement": "FX activation by FVIIa", "setting": "[1]", "value": "inhibited FX activation in a concentration-dependent manner"}, {"measurement": "PT", "setting": "[2]", "value": "did not change"}, {"measurement": "concentration that doubled the clotting time (in vitro aPTT)", "setting": "[3]; PPP incubated 15 min", "value": 7.23, "unit": "µM"}, {"measurement": "aPTT in vitro", "setting": "[3]; doses between 5 and 20 M", "value": "considerably slowed the aPTT"}]}]}
